Entries after “also recorded” stand apart in the source; their conditions may differ. Marks after values point to notes of the source that are not given here. Values belong to the compound of their own block, whether it stands above or below them.
How the values were obtained:
[1] = molecular target: human placental β-hexosaminidase; assay: Inhibition of β-hexosaminidase, substrate pNP-GlcNAc, Dixon plots; settings: for Ki: read-out: β-Hexosaminidase KI, Table 3, substrate pNP-GlcNAc 0.5 mM, pH 4.25
O-GlcNAcase [2] = molecular target: T1, O-GlcNAcase (Homo sapiens, UniProt O60502); assay: Inhibition of O-GlcNAcase, substrate pNP-GlcNAc, Dixon plots; settings: for Selectivity Ratio (β-Hexosaminidase KI/O-GlcNAcase KI): Table 3
T1 sequence (O60502 1-916): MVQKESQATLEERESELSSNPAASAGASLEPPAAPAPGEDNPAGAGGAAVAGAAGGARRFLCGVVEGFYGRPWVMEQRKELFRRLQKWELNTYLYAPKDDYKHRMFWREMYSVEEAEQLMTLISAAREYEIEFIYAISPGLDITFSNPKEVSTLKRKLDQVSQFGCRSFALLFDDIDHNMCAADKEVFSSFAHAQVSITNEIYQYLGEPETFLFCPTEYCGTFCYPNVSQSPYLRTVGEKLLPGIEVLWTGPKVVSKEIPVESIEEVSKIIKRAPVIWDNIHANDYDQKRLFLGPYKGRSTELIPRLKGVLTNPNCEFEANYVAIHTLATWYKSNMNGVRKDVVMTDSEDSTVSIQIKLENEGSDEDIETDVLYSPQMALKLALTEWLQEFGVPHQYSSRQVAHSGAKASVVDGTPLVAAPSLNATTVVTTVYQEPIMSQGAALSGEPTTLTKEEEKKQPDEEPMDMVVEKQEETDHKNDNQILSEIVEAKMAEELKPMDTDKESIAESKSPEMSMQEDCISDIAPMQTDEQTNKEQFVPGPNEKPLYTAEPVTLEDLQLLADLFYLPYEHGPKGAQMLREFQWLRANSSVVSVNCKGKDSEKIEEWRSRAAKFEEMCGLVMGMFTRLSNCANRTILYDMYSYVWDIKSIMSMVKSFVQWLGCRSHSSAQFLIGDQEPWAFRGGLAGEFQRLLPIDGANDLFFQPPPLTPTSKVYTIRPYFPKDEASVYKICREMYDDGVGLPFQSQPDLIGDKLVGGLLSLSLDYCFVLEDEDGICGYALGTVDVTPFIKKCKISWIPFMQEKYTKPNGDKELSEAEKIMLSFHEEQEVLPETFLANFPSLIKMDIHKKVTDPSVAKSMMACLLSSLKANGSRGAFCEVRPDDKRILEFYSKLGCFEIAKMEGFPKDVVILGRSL

O-GlcNAcase [3] = molecular target: T1, O-GlcNAcase; settings: for Selectivity Ratio (β-Hex KI/O-GlcNAcase KI): Table 2
O-GlcNAcase [4] = molecular target: T1, O-GlcNAcase; assay: biochemical
[5] = test system: human placental β-hexosaminidase; assay: Inhibition of β-hexosaminidase, substrate MU-GlcNAc (5), Dixon plots
[6] = test system: O-GlcNAc modified proteins in rat tissues; assay: Oral availability: tissue O-GlcNAc levels in rats fed inhibitor in chow; format: in vivo
Procedure: To determine if the inhibitor 9c is orally available, it was incorporated into the chow (Lab Diet 5001 Rodent Diet, PMI Nutrition International, LLC). To make the rat chow, 600 g of the ground chow was mixed with 355 ml of water and 5 μL of the inhibitor dissolved in ethanol. Small pieces were then prepared with a pasta machine (Pasta Express, Creative) and dehydrated overnight at 37° C. (Snackmaster Dehydrator, American Harvest). Five sets of chow were made with the following amounts of inhibitor: 0 mg kg^−1 days^−1, 100 or 1000 mg kg^−1 days^−1 of the deprotected (polar) inhibitor, and 100 or 1000 mg kg^−1 day^−1 of the protected (non-polar) inhibitor. […] Ten five-week old healthy Sprague-Dawley rats (two per set of food) were then allowed to feed on the rat chow for three days. The animals were then sacrificed and tissues were collected, homogenized, and analyzed as described above.

human β-hexosaminidase = assay: Michaelis-Menten kinetics of β-hexosaminidase catalyzed hydrolysis of 4-methylumbelliferyl GlcNAc substrate analogues; format: biochemical; settings: 37° C., pH 4.25
Excerpt: These compounds were first tested with the lysosomal human β-hexosamindase since this enzyme is known to proceed via a mechanism involving anchimeric assistance (FIG. 2A). Although Michaelian saturation kinetics were not observed for all substrates (Table 1), Vmax[E]o/KM, which is proportional to the second order rate constant governing the enzyme catalyzed reaction, could be determined from the initial slope of the Michaelis-Menten plot (FIG. 2A Inset). […] As expected, decreasing the basicity of the carbonyl oxygen has a deleterious effect on catalysis.

O-GlcNAcase [7] = molecular target: T1, O-GlcNAcase; assay: Michaelis-Menten kinetics of O-GlcNAcase catalyzed hydrolysis of 4-methylumbelliferyl GlcNAc substrate analogues; format: biochemical; settings: 37° C., pH 6.5
Excerpt: For O-GlcNAcase the value of Vmax[E]0/KM is also dependant on the extent of fluorine substitution but the slope is more shallow (ρ=−0.42±0.08, FIG. 2C).

[8] = read-out: β-Hexosaminidase KI, Table 2, substrate 5 at 0.64 mM, pH 4.25, Dixon plots
[9] = read-out: KI, β-hexosaminidase, human lysosomal β-hexosaminidase
[10] = rats fed inhibitor in food for three days

SMILES: CCC1=N[C@@H]2[C@@H](O)[C@H](O)[C@@H](CO)O[C@@H]2S1 [Compound 9b, 1,2-dideoxy-2′-ethyl-α-D-glucopyranoso-[2,1-d]-Δ2′-thiazoline]
inhibition of O-GlcNAcase, in words (O-GlcNAcase [3]): potent inhibitors | selectivity for O-GlcNAcase over β-hexosaminidase, in words (O-GlcNAcase [3]): remarkable selectivity | Selectivity Ratio (β-Hex KI/O-GlcNAcase KI) (O-GlcNAcase [3]): 270 | Ki (O-GlcNAcase [4]): 0.12 µM | increase in KI for β-hexosaminidase compared to parent NAG-thiazoline (9a) [5]: 460 fold | Ki [5, 8]: 32 µM

SMILES: CCCCCC1=N[C@@H]2[C@@H](O)[C@H](O)[C@@H](CO)O[C@@H]2S1 [Compound 9e, 1,2-dideoxy-2′-pentyl-α-D-glucopyranoso-[2,1-d]-Δ2′-thiazoline]
Selectivity Ratio (β-Hex KI/O-GlcNAcase KI) (O-GlcNAcase [3]): 100 | Ki (O-GlcNAcase [4]): 57 µM | Ki [5, 8]: 11000 µM

SMILES: CC(=O)N[C@H]1/C(=N/OC(=O)Nc2ccccc2)O[C@H](CO)[C@@H](O)[C@@H]1O [PUGNAc, O-(2-acetamido-2-deoxy-D-glucopyranosylidene)amino N-phenylcarbamate]
Ki [1]: 0.036 µM | Ki [5, 9]: 0.036 µM | Ki [5, 8]: 0.036 µM

SMILES: CCCC1=N[C@@H]2[C@@H](OC(C)=O)[C@H](OC(C)=O)[C@@H](COC(C)=O)O[C@@H]2S1 [9c (protected), 3,4,6-tri-O-acetyl-1,2-dideoxy-2′-propyl-α-D-glucopyranoso-[2,1-d]-Δ2′-thiazoline]
cellular levels of O-GlcNAc modified proteins in brain tissue, oral 100 mg/kg/day ([6]; rats fed inhibitor in chow for three days): marked increases | cellular levels of O-GlcNAc modified proteins in brain tissue, oral 1000 mg/kg/day ([6]; rats fed inhibitor in chow for three days, compared with 100 mg/kg/day): even greater | O-GlcNAc modified proteins in brain, muscle, pancreas, fat and spleen, oral 100 mg kg^−1 day^−1 (FIG. 12 legend) [6, 10]: large increases | O-GlcNAc modified proteins in tissues, oral 1000 mg kg^−1 days^−1 (FIG. 12 legend) [6, 10]: slightly greater increases

SMILES: CC(=O)N[C@H]1[C@H](Oc2ccc3c(C)cc(=O)oc3c2)O[C@H](CO)[C@@H](O)[C@@H]1O [MuGlcNAc, reference compound]
Km (human β-hexosaminidase): 880 ± 50 µM | Vmax [E]o (human β-hexosaminidase): 8.3 ± 0.2 µmol/min/mg | Km (O-GlcNAcase [7]): 430 ± 40 µM | Vmax [E]o (O-GlcNAcase [7]): 0.74 ± 0.02 µmol/min/mg

SMILES: Cc1cc(=O)oc2cc(O[C@@H]3O[C@H](CO)[C@@H](O)[C@H](O)[C@H]3NC(=O)CF)ccc12 [MuGlcNAc-F1, 4-Methylumbelliferyl 2-deoxy-2-fluoroacetamido-β-D-glucopyranoside]
Km (human β-hexosaminidase): 3800 ± 400 µM | Vmax [E]o (human β-hexosaminidase): 3.3 ± 0.2^b μmol min^−1 mg^−1 | Km (O-GlcNAcase [7]): 490 ± 60 µM | Vmax [E]o (O-GlcNAcase [7]): 0.60 ± 0.03 µmol/min/mg

SMILES: CCCCC1=N[C@@H]2[C@@H](O)[C@H](O)[C@@H](CO)O[C@@H]2S1 [Compound 9d, 1,2-dideoxy-2′-butyl-α-D-glucopyranoso-[2,1-d]-Δ2′-thiazoline]
selectivity ratio for O-GlcNAcase over β-hexosaminidase (O-GlcNAcase [3]): 3100 fold | Selectivity Ratio (β-Hex KI/O-GlcNAcase KI) (O-GlcNAcase [3]): 3100 | Ki (O-GlcNAcase [4]): 1.5 µM | Ki [5, 8]: 4600 µM

SMILES: CC(=O)N[C@H]1C(O)O[C@H](CO)[C@@H](O)[C@@H]1O (stereo partly shown) [GlcNAc, N-acetylglucosamine, reference compound]
Selectivity Ratio (β-Hex KI/O-GlcNAcase KI) (O-GlcNAcase [3]): 0.8 | Ki (O-GlcNAcase [4]): 1500 µM | Ki [5, 9]: 1200 µM | Ki [5, 8]: 1200 µM

SMILES: Cc1cc(=O)oc2cc(O[C@@H]3O[C@H](CO)[C@@H](O)[C@H](O)[C@H]3NC(=O)C(F)(F)F)ccc12 [MuGlcNAc-F3, 4-Methylumbelliferyl 2-deoxy-2-trifluoroacetamido-β-D-glucopyranoside]
Km (O-GlcNAcase [7]): 380 ± 30 µM | Vmax [E]o (O-GlcNAcase [7]): 0.033 ± 0.001 µmol/min/mg

SMILES: CC(C)C1=N[C@@H]2[C@@H](O)[C@H](O)[C@@H](CO)O[C@@H]2S1 [Compound 9f, 1,2-dideoxy-2′-isopropyl-α-D-glucopyranoso-[2,1-d]-Δ2′-thiazoline]
inhibition of O-GlcNAcase, in words (O-GlcNAcase [3]): good inhibitors; also recorded: potent inhibitors | selectivity for O-GlcNAcase over β-hexosaminidase, in words (O-GlcNAcase [3]): remarkable selectivity | selectivity ratio for O-GlcNAcase over β-hexosaminidase (O-GlcNAcase [3]): 700 fold | Selectivity Ratio (β-Hex KI/O-GlcNAcase KI) (O-GlcNAcase [3]): 700 | Ki (O-GlcNAcase [4]): 1.6 µM | Ki [5, 8]: 720 µM

SMILES: Cc1cc(=O)oc2cc(O[C@@H]3O[C@H](CO)[C@@H](O)[C@H](O)[C@H]3NC(=O)C(F)F)ccc12 [MuGlcNAc-F2, 4-Methylumbelliferyl 2-deoxy-2-difluoroacetamido-β-D-glucopyranoside]
Km (O-GlcNAcase [7]): 450 ± 50 µM | Vmax [E]o (O-GlcNAcase [7]): 0.16 ± 0.01 µmol/min/mg

Next, values leading:

Ki [1]: > 900 µM | Ki (O-GlcNAcase [2]): 210 µM | Selectivity Ratio (β-Hexosaminidase KI/O-GlcNAcase KI) (O-GlcNAcase [2]): ≧5
SMILES: CCCCCC(=O)N[C@H]1C(=NOC(=O)Nc2ccccc2)O[C@H](CO)[C@@H](O)[C@@H]1O [Compound 22d, O-(2-deoxy-2-hexamido-D-glucopyranosylidene)amino N-Phenylcarbamate]

increase in KI for β-hexosaminidase compared to parent PUGNAc [1]: 33 fold | Ki [1]: 1.2 µM | Ki (O-GlcNAcase [2]): 1.2 µM | Selectivity Ratio (β-Hexosaminidase KI/O-GlcNAcase KI) (O-GlcNAcase [2]): 1
SMILES: CCC(=O)N[C@H]1C(=NOC(=O)Nc2ccccc2)O[C@H](CO)[C@@H](O)[C@@H]1O [Compound 22a]

Ki [1]: 20 µM | Ki (O-GlcNAcase [2]): 9 µM | Selectivity Ratio (β-Hexosaminidase KI/O-GlcNAcase KI) (O-GlcNAcase [2]): 2
SMILES: CC(C)C(=O)N[C@H]1C(=NOC(=O)Nc2ccccc2)O[C@H](CO)[C@@H](O)[C@@H]1O [Compound 22e, O-(2-deoxy-2-isobutamido-D-glucopyranosylidene)amino N-Phenylcarbamate]

Ki [1]: 220 µM | Ki (O-GlcNAcase [2]): 40 µM | Selectivity Ratio (β-Hexosaminidase KI/O-GlcNAcase KI) (O-GlcNAcase [2]): 6
SMILES: CCCCC(=O)NC1C(=NOC(=O)Nc2ccccc2)OC(CO)C(O)C1O (stereo not shown) [Compound 22c]

Ki [1]: > 1200 µM | Ki (O-GlcNAcase [2]): 190 µM | Selectivity Ratio (β-Hexosaminidase KI/O-GlcNAcase KI) (O-GlcNAcase [2]): ≧6
SMILES: CC(C)CC(=O)N[C@H]1C(=NOC(=O)Nc2ccccc2)O[C@H](CO)[C@@H](O)[C@@H]1O [Compound 22f, O-(2-deoxy-2-isovaleramido-D-glucopyranosylidene)amino N-Phenylcarbamate]

Ki [1]: 26 µM | Ki (O-GlcNAcase [2]): 2.4 µM | Selectivity Ratio (β-Hexosaminidase KI/O-GlcNAcase KI) (O-GlcNAcase [2]): 11
SMILES: CCCC(=O)N[C@H]1C(=NOC(=O)Nc2ccccc2)O[C@H](CO)[C@@H](O)[C@@H]1O [Compound 22b, O-(2-deoxy-2-butamido-D-glucopyranosylidene)amino N-Phenylcarbamate]
